What was measured:
Rattus norvegicus [1] = conditions: oral
Rattus norvegicus [2] = system: Rattus norvegicus
[3] = short-term, duration: 28 days, gavage, F, Sprague-Dawley, Clinical Observation: Staggering gait Locomotor activity decrease, Lacrimation Prone position Loose stool + Functional Observational Battery…
[4] = short-term, duration: 28 days, gavage, M, Sprague-Dawley, Clinical Observation: Staggering gait Locomotor activity decrease, Lacrimation Prone position Loose stool + Functional Observational Battery…
[5] = acute, oral, gavage, Sprague-Dawley
[6] = subchronic, oral, gavage, Sprague-Dawley
[7] = short-term, duration: 28 days, gavage, M, Sprague-Dawley, Clinical Observation: Salivation Spontaneous locomotion decrease, Respiratory rate decrease
[8] = short-term, duration: 28 days, gavage, F, Sprague-Dawley, Urinalysis: Volume increasep H decrease + Hematology: APTT increase, PT increase + Blood Chemistry: TP increase, Glu decrease, Cho increase…
[9] = short-term, duration: 28 days, gavage, M, Sprague-Dawley, Urinalysis: Volume increasep H decrease + Hematology: APTT increase, PT increase + Blood Chemistry: TP increase, Glu decrease, Cho increase…
[10] = subchronic, gavage, M, Sprague-Dawley, Hematology: RBC decrease, Hgb decrease, Ret increase + Blood Chemistry: Cho increase, PL increase + Absolute Organ Weight: Kidney increase…

With `NC(=O)Nc1ccccc1` [1-Phenylurea] the LOEL (Rattus norvegicus [1]; [3]) was 400 mg/kg-day, the NOEL (Rattus norvegicus [1]; [3]) was 200 mg/kg-day and the LOEL (Rattus norvegicus [1]; [4]) was 200 mg/kg-day. The NOEL (Rattus norvegicus [1]; [4]) was 100 mg/kg-day.

`CCCCN(CCCC)C(=S)[S-].CCCCN(CCCC)C(=S)[S-].[Cu+2]` [Bis(N,N-dibutyldithiocarbamato)copper] gave an NOEL (Rattus norvegicus [1]; subchronic, gavage, M, Sprague-Dawley, Urinalysis: Protein increase, Cl increase + Blood Chemistry: Cho increase + Relative Organ Weight: Adrenal decrease) of less than 40 mg/kg-day.

`C[C@](N)(Cc1ccc(O)c(O)c1)C(=O)O.C[C@](N)(Cc1ccc(O)c(O)c1)C(=O)O.O.O.O` [Methyldopa sesquihydrate] was tested, and the NOEL (Rattus norvegicus [1]; subchronic, duration: 13 weeks, diet, M/F, Fischer 344, Deaths + Body Weight Changes: decrease + Food Consumption: decrease + Absolute Organ Weight: Liver decrease + Relative Organ Weight: Liver …) was less than 298 mg/kg-day.

In the case of `ClC(Cl)(Cl)c1ccccc1` [Benzotrichloride], the NOAEL (Rattus norvegicus [1]; short-term, duration: 28 days, diet, M/F, CD, Blood Chemistry: SDH(sorbitol dehydrogenase) increase, LDH increase + Histopathology: Liver: Anisokaryosis associated with pyknosis, …) is reported as less than 0.5 ppm.

`CCCCCCCCCCCCC(CO)CCCCCCCCCC` (stereo not drawn) [1-Tetradecanol, 2-decyl-] showed an NOAEL (Rattus norvegicus [1]; subchronic, gavage, M, Sprague-Dawley, Urinalysis: Occult blood + Hematology: PT increase, APTT increase + Blood Chemistry: LDH increase) of 62.5 mg/kg-day.

`CCCCCCCCCCCCCOC(=O)c1ccccc1C(=O)OCCCCCCCCCCCCC` [Ditridecyl phthalate] showed an LD50 (Rattus norvegicus [2]; [5]) greater than 2000 mg/kg, an NOAEL (Rattus norvegicus [2]; developmental, oral, gavage, Sprague-Dawley) of 250 mg/kg-day and an NOAEL (Rattus norvegicus [2]; reproduction developmental, oral, gavage, F, Sprague-Dawley) of 50 mg/kg-day. The NOAEL (Rattus norvegicus [2]; reproduction developmental, oral, gavage, M, Sprague-Dawley) was 250 mg/kg-day, the NOAEL (Rattus norvegicus [2]; reproduction developmental, oral, gavage, Sprague-Dawley, generation: F1) was 250 mg/kg-day and the LOAEL (Rattus norvegicus [2]; [6]) was 50 mg/kg-day. The NOAEL (Rattus norvegicus [2]; [6]) was 10 mg/kg-day.

`COC(=O)CCS` [Methyl 3-mercaptopropionate] showed an NOAEL (Rattus norvegicus [1]; subchronic, gavage, M, Wistar, Clinical Observation: Pushed their heads through the bedding + Relative Organ Weight: Liver increase + Histopathology: Stomach: Hyperplasia…) of 100 mg/kg-day.

Work on `C=C(C)C(=O)OCC[N+](C)(C)C.[Cl-]` [(2-(Methacryloyloxy)ethyl)trimethylammonium chloride] yielded an LD50 (Rattus norvegicus [2]; [5]) greater than 2000 mg/kg, an NOAEL (Rattus norvegicus [2]; short-term, duration: 28 days, oral, diet, F, Crj:CD) greater than 1000 mg/kg-day and an NOAEL (Rattus norvegicus [2]; short-term, duration: 28 days, oral, diet, M, Crj:CD) greater than 1000 mg/kg-day.

Molecule `CC(O)(P(=O)(O)O)P(=O)(O)O` [Etidronic acid] has an NOAEL (Rattus norvegicus [1]; subchronic, duration: 90 days, diet, M/F, Body Weight Changes: decrease + Food Consumption: decrease + Hematology: RBC increase, HGB decrease, HCT decrease + Absolute Organ Weight: …) greater than 2880 mg/kg-day.

`O=P(OCCCl)(OCCCl)OCCCl` [Tris(2-chloroethyl) phosphate] showed an NOAEL (Rattus norvegicus [1]; [7]) of 400 mg/kg-day and an NOEL (Rattus norvegicus [1]; [7]) of 80 mg/kg-day.

`CO[Si](C)(C)OC` [Dimethoxydimethylsilane] showed an NOAEL (Rattus norvegicus [1]; short-term, duration: 29 days, gavage, M/F, Sprague-Dawley, Deaths + Clinical Observation: Soiling of chin and urogenital area Soiling of muzzle + Absolute Organ Weight: Adrenal decrease, Liver …) of 250 mg/kg-day.

Molecule `C=C1C/C(=C/C)C(=O)O[C@@H]2CCN3CC=C(COC(=O)[C@@]1(O)CO)[C@H]23` [Riddelliine] has an NOEL (Rattus norvegicus [1]; subchronic, gavage, M/F, Fischer 344, Deaths + Body Weight Changes: decrease + Hematology: Ret increase Hct increase Hgb increase RBC increase Plt decrease, WBC increase Lymph …) of less than 0.1 mg/kg-day.

For `CC(C)CCCCCCOC(=O)c1ccc(C(=O)OCCCCCCC(C)C)c(C(=O)OCCCCCCC(C)C)c1` [Triisononyl trimellitate], the LD50 (Rattus norvegicus [2]; acute, oral, Sprague-Dawley) was greater than 10000 mg/kg.

Work on `CCO[Si](CCCN)(OCC)OCC` [3-Aminopropyltriethoxysilane] yielded an NOAEL (Rattus norvegicus [1]; chronic, duration: 91 days, gavage, M/F, CD(SD), Deaths + Clinical Observation: Rales Wet and/or dried material (red, yellow, brown and/or clear) on various body surfaces Abnormal excreta…) of 200 mg/kg-day.

With `COc1ccc(OC)c(N)c1` [Benzenamine, 2,5-dimethoxy-] the NOEL (Rattus norvegicus [1]; short-term, duration: 28 days, gavage, M/F, Clinical Observation: Salivation + Body Weight Changes: Weight gain decrease + Food Consumption: decrease + Hematology: HGB decrease, RET …) was 1 mg/kg-day.

In the case of `CCc1ncnc(Cl)c1Cl` [4,5-DICHLORO-6-ETHYLPYRIMIDINE], the NOEL (Rattus norvegicus [1]; short-term, duration: 28 days, gavage, M/F, Deaths + Clinical Observation: Salivation Locomotor activity decrease, Ptosis + Body Weight Changes: Weight gain decrease + Food Consumption…) is reported as 5 mg/kg-day.

With `CC/C=C\C#N` [(2Z)-2-Pentenenitrile] the LC50 (Rattus norvegicus [2]; acute, inhalation, CRL:CD BR) was 2820 mg/m3, the NOAEL (Rattus norvegicus [2]; short-term, duration: 28 days, inhalation, CRL:CD BR) was 995 mg/m3 and the NOAEL (Rattus norvegicus [2]; short-term, duration: 28 days, inhalation, F, CRL:CD BR) was 9.95 mg/m3. It also gave an NOAEL (Rattus norvegicus [2]; short-term, duration: 28 days, inhalation, M, CRL:CD BR) of 9.95 mg/m3.

`Oc1cccc(O)c1` [Resorcinol] showed an NOEL (Rattus norvegicus [1]; subchronic, duration: 13 weeks, gavage, M/F, Fischer 344, Deaths + Clinical Observation: Tremor + Blood Chemistry: Ch E decrease + Absolute Organ Weight: Adrenal increase + Relative Organ Weight: …) of less than 32 mg/kg-day.

`c1ccc2c(c1)[nH]c1ccccc12` [Carbazole] was tested, and the NOEL (Rattus norvegicus [1]; subchronic, gavage, M, Sprague-Dawley, Body Weight Changes: decrease + Blood Chemistry: T-Cho increase, PL increase, Glu decrease + Absolute Organ Weight: Liver increase, Kidney …) was 25 mg/kg-day.

`C=CC(=O)N(C)C` [N,N-Dimethylacrylamide] showed an NOEL (Rattus norvegicus [1]; short-term, duration: 28 days, gavage, M/F, Sprague-Dawley, Functional Observational Battery: Urination increase, Rearing decrease, Unkempt fur Motor activity decrease + Body Weight Changes: decrease…) of 20 mg/kg-day.

Molecule `C=CC(C)(C)O` [2-Methyl-3-buten-2-ol] has an NOAEL (Rattus norvegicus [1]; short-term, duration: 28 days, gavage, M/F, Wistar, Deaths + 'excluded + Clinical Observation: Sedation Ataxia Uncoordinated gait Salivation + Blood Chemistry: ALT increase, AST increase + …) of 50 mg/kg-day.

With `CCCCCCC[CH2][Sn]([CH2]CCCCCCC)([S]CC(=O)OCCCCCC(C)C)[S]CC(=O)OCCCCCC(C)C` [Dioctyltin-S,S'-bis(isooctylmercaptoacetate)] the NOAEL (Rattus norvegicus [1]; subchronic, duration: 13 weeks, diet, Sprague-Dawley) was 14.4 mg/kg-day.

`O=C1CCCO1` [gamma-Butyrolactone] showed an NOEL (Rattus norvegicus [1]; subchronic, duration: 13 weeks, gavage, M/F, Fischer 344, Clinical Observation: Slight inactivity Recumbent + Body Weight Changes: decrease + Absolute Organ Weight: Thymus decrease + Relative Organ …) of 112 mg/kg-day.

`CCCCCCCCCCCCCCCCCCN(C)C` [N,N-Dimethyl-1-octadecanamine] gave an LD50 (Rattus norvegicus [2]; acute, oral, gavage) of 2120 mg/kg.

Molecule `O=C/C=C/[O-].[Na+]` [Malonaldehyde, sodium salt] has an NOEL (Rattus norvegicus [1]; subchronic, duration: 13 weeks, gavage, M/F, Fischer 344, Deaths + Clinical Observation: Rough hair coats Red exudate around the eyes Impairment of hindleg motor ability + Body Weight Changes: …) of 30 mg/kg-day.

For `C1CCC2CCCCC2C1` (stereo not drawn) [Decalin], the LOEL (Rattus norvegicus [1]; [8]) was 200 mg/kg-day, the NOEL (Rattus norvegicus [1]; [8]) was 40 mg/kg-day and the LOEL (Rattus norvegicus [1]; [9]) was 40 mg/kg-day. It also gave an NOEL (Rattus norvegicus [1]; [9]) of less than 40 mg/kg-day.

Molecule `Sc1ccccc1` [Benzenethiol] has an LOAEL (Rattus norvegicus [1]; [10]) of 0.4 mg/kg-day, an LOEL (Rattus norvegicus [1]; [10]) of 0.4 mg/kg-day and an NOAEL (Rattus norvegicus [1]; [10]) of less than 0.4 mg/kg-day. The NOEL (Rattus norvegicus [1]; [10]) was less than 0.4 mg/kg-day.
